In patent US20100022559A1, “BISOXIMES AS FUNGICIDES” (BAYER CROPSCIENCE AG, priority 2006, published 2010):
Each block holds one compound with its values, some of them ahead of it.

Assay: logP determination by HPLC on a reversed-phase column (C 18), EEC Directive 79/831 Annex V.A8
Assay type: physicochemical
Procedure: The stated logP values were determined in accordance with EEC Directive 79/831 Annex V.A8 by HPLC (high performance liquid chromatography) on a reversed-phase column (C 18). Temperature: 43° C.

[1] = method marker [b], isomer A / isomer B / isomer mixture as noted in the cell
[2] = method marker [a] (footnote not shown), isomer A / isomer B / isomer mixture as noted in the cell
[3] = [a] acidic range, pH 2.3, 0.1% aqueous phosphoric acid and acetonitrile
[4] = [b] LC-MS, acidic range, pH 2.7, 0.1% aqueous formic acid and acetonitrile
[5] = [c] LC-MS, neutral range, pH 7.8, 0.001 molar aqueous ammonium bicarbonate solution and acetonitrile

logP (value marked [b]): 5.36^[b]
SMILES: CC(=NOCC(C)CON=C(C)c1ccc(Cl)s1)c1cccc(C)n1 (centres unmarked) [compound 498]

logP (value marked [b]): 5.78^[b]
SMILES: C=C(CON=C(C)c1cccc(C)n1)CON=C(C)c1cccc(C(C)C)n1 [compound 479]

logP (value marked [a]): 4.12^[a]
SMILES: C=C(CON=C(Cl)c1cccc(C)n1)CON=C(Cl)c1ccc(C)c(C)n1 [compound 822]

logP (value marked [a]): 5.23^[a]
logP (value marked [c]): 7.36^[c]
SMILES: CC(=NOCC(C)CON=C(C)c1cc(C2CC2)cc(C)n1)c1cc(Cl)cc(C)n1 (centres unmarked) [compound 846]

logP (method marked [b] in Table 1): 5.06^[b]
SMILES: CCC(CC)(C(=O)ON=C(C)c1ccc(C)c(C)n1)C(=O)ON=C(C)c1ccc(C)c(C)n1 [compound 675]

logP (method marked [b] in Table 1): 3.76^[b]
SMILES: N/C(=N\OCc1cccc(CO/N=C(\N)c2nc(C3CC3)cc(C3CC3)n2)c1)c1nc(C2CC2)cc(C2CC2)n1 [compound 716]

logP (method marked [b] in Table 1): 4.37^[b]
SMILES: CC(=NOCC(C)(C)CON=C(C)c1sc(C)nc1C)c1cccc(C)n1 [compound 546]

logP (method marked [b] in Table 1): 4.10^[b]
logP (method marked [c] in Table 1): 4.10^[c]
SMILES: C=C(CON=C(C)c1nc(OC)cc(OC)n1)CON=C(C)c1nc(OC)cc(OC)n1 [compound 565]

logP (method marked [b] in Table 1): 2.96^[b]
SMILES: N/C(=N\OCc1cccc(CO/N=C(\N)c2ncc(F)cc2F)c1)c1ncc(F)cc1F [compound 714]

logP (value marked [a]): 5.21^[a]
SMILES: CC(=NOCCCON=C(C)c1cccc(C(F)F)n1)c1cccc(C(F)F)n1 [compound 521]

logP (method marked [b] in Table 1): 3.61^[b]
SMILES: CC(=NOCC1(CON=C(C)c2ccc(C)c(C)n2)CC(c2ccccc2)=NO1)c1ccc(C)c(C)n1 (centres unmarked) [compound 632]

logP (value marked [a]): 6.52^[a]
logP (value marked [b]): 6.52^[b]
logP (value marked [c]): 7.36^[c]
SMILES: CC(=NOCC(C)CON=C(C)c1ccc(C)c(C)n1)c1cc(Cl)cc(C)n1 (centres unmarked) [compound 876]

logP (value marked [b]): 6.36^[b]
SMILES: CCCc1cccc(C(C)=NOCC(C)(C)CON=C(C)c2cccc(C)n2)n1 [compound 489]

logP (value marked [b]): 2.41^[b]
SMILES: CC(=NOCC(C)(C)CON=C(C)c1cccc(C)n1)c1ccncc1 [compound 481]

logP (value marked [b]): 1.69^[b]
SMILES: CC(=NOCCCCON=C(C)c1cccnc1C)c1cccc(C)n1 [compound 448]

logP (method marked [b] in Table 1): 4.67^[b]
SMILES: CC(=NOCC1(CON=C(C)c2cccc(C)n2)CC(c2ccc(Cl)cc2)=NO1)c1cccc(C)n1 (centres unmarked) [compound 601]

logP (value marked [b]): 5.48^[b]
SMILES: CCCc1cccc(C(C)=NOCCCCON=C(C)c2cccc(C)n2)n1 [compound 450]

logP (value marked [b]): 3.46^[b]
SMILES: C=C(CON=C(C)c1cccc(C)n1)CON=C(C)c1cncc(C)n1 [compound 480]

logP (method marked [b] in Table 1): 4.49^[b]
SMILES: Cc1cccc(C(=NOCC(C)CON=C(c2cccc(C)n2)c2cccs2)c2cccs2)n1 (centres unmarked) [compound 673]

logP (method marked [b] in Table 1): 3.28^[b]
SMILES: CC(=NOCC1(CON=C(C)c2cccc(C)n2)CC(C(C)C)=NO1)c1cccc(C)n1 (centres unmarked) [compound 597]

logP (method marked [b] in Table 1): 3.19^[b]
logP (method marked [c] in Table 1): 5.54^[c]
SMILES: CCC(CON=C(C)c1nc(C)ccc1C)CON=C(C)c1nc(C)ccc1C (single isomer, unassigned) [compound 751]

logP (value marked [b]): 4.62^[b]
logP (value marked [c]): 5.09^[c]
SMILES: CC(=NOc1nc(Cl)nc(ON=C(C)c2cccc(C)n2)c1Cl)c1cccc(C)n1 (single isomer, unassigned) [compound 779]

The remaining lines, values behind:

SMILES: C=C(CON=C(C)c1cccc(C)n1)CON=C(C)c1nc2ccccc2s1 [compound 218]
logP [1]: 4.79^[b]

SMILES: C=C(CON=Cc1cc(C(F)(F)F)cc(C)n1)CON=C(C)c1cccc(C)n1 (mixture of isomers) [Compound 671]
logP (method marked [b] in Table 1): 4.61^[b]

SMILES: CC(=NOCC(C)CON=C(C)c1nc(C)ccc1C)c1nc(C)ccc1C (single isomer, unassigned) [Compound 267]
logP (value marked [b]): 2.5^[b] (isomer B)

SMILES: Cc1cccnc1C(Cc1ccccc1)=NOCCCON=C(Cc1ccccc1)c1ncccc1C (single isomer, unassigned) [compound 96]
logP [2]: 5.54^[a] (isomer B)

SMILES: C=C(CON=C(C)c1ccc(Cl)nc1)CON=C(C)c1ccc(Cl)nc1 [Compound 57]
logP [1]: 4.38^[b]

SMILES: N/C(=N\OCO/N=C(\N)c1nc(C2CC2)cc(C2CC2)n1)c1nc(C2CC2)cc(C2CC2)n1 [compound 42]
logP [1]: 2.92^[b]

SMILES: CCCC(CON=C(C)c1cccc(C)n1)CON=C(C)c1cccc(C)n1 (centres unmarked) [Compound 270]
logP (value marked [b]): 5.14^[b]

SMILES: Cc1cccc(C(=NOCC(C)(C)CON=C(c2cccc(C)n2)C2CC2)C2CC2)n1 (single isomer, unassigned) [compound 282]
logP (value marked [a]): 3.75^[a] (isomer A)

SMILES: C=C(CON=C(C)c1cccc(C)n1)CON=C(C)c1cc(C(F)(F)F)cc(C)n1 [compound 211]
logP [1]: 5.70^[b]

SMILES: C=C(CON=C(C)c1cccnc1)CON=C(C)c1cccc(C)n1 [compound 407]
logP (value marked [b]): 2.15^[b]

SMILES: CC(=NOCC(C)CON=C(C)c1cccc(C)n1)c1cccc(C(F)(F)F)c1 (centres unmarked) [compound 433]
logP (value marked [b]): 5.71^[b]

SMILES: CCC(=NOCC(C)(C)CON=C(C)c1cccc(C)n1)c1cccc(C)n1 [Compound 372]
logP (value marked [b]): 5.33^[b]

SMILES: CC(=NOCCCCON=C(c1ccccc1)c1cccc(C)n1)c1cccc(C)n1 [compound 332]
logP (value marked [b]): 3.51^[b]

SMILES: CC(=NOCC(C)(C)CON=C(C)c1cccc(C)n1)c1ccc2c(c1)OCO2 [compound 412]
logP (value marked [b]): 5.08^[b]

SMILES: COc1cccc(C(C)=NOCC(=O)CON=C(C)c2cccc(OC)n2)n1 [compound 247]
logP [1]: 4.61^[b]

SMILES: CCCC(=NOCCCCON=C(C)c1cccc(C)n1)c1cccc(C)n1 [compound 330]
logP (value marked [b]): 4.82^[b]

SMILES: CCCC(=NOCCCCCCON=C(C)c1cccc(C)n1)c1cccc(C)n1 [compound 345]
logP (value marked [b]): 6.16^[b]

SMILES: C=C(CON=C(C)c1cccc(C)n1)CON=C(C)c1ccc(C)c(C)n1 [Compound 204]
logP [1]: 3.10^[b]

SMILES: CC(=NOCCCON=C(C)c1cnc(-c2ccccc2)s1)c1cnc(-c2ccccc2)s1 [compound 49]
logP [1]: 7.07^[b]

SMILES: C=C(CON=C(C)c1cccc(C)n1)CON=C(N)c1nccc(C)n1 [compound 187]
logP [1]: 1.73^[b]

SMILES: Cc1cc(C)nc(C(N)=NOCCCCON=C(N)c2cc(C)cc(C)n2)c1 [compound 123]
logP [1]: 2.67^[b]

SMILES: CCC(=NOCC(C)(C)CON=C(CC)c1cc(C)cc(C)n1)c1cc(C)cc(C)n1 (mixture of isomers) [Compound 571]
logP (method marked [a] in Table 1): 3.92^[a]

SMILES: CC(=NOCC(CON=C(C)c1cccc(C)n1)C(C)C)c1cccc(C)n1 (centres unmarked) [Compound 680]
logP (method marked [b] in Table 1): 5.03^[b]
logP (method marked [c] in Table 1): 6.40^[c]

SMILES: COC(CON=C(C)c1cc(C)cc(C)n1)CON=C(C)c1cc(C)cc(C)n1 (centres unmarked) [Compound 552]
logP (method marked [b] in Table 1): 1.56^[b]
logP (method marked [c] in Table 1): 4.91^[c]

SMILES: COC(CON=C(C)c1cccc(C)n1)CON=C(C)c1cccc(C)n1 (centres unmarked) [Compound 294]
logP (value marked [b]): 2.22^[b]

SMILES: CC(=NOCCCON=C(C)c1nc(C)c(C)s1)c1nc(C)c(C)s1 [compound 51]
logP [1]: 5.03^[b]

SMILES: CC(=NOCC(C)(O)CON=C(C)c1cccc(C)n1)c1cccc(C)n1 (centres unmarked) [Compound 12]
logP [2]: 1.66^[a]

SMILES: C/C(=N\OCC(C)CON)c1cc(C(F)(F)F)cc(C)n1 (racemic) [XII-15]
logP [3]: 2.33^[a]
logP [4]: 2.33^[b]
logP [5]: 3.38^[c]

SMILES: Cc1cccnc1C(Cc1ccccc1)=NOCC(C)CON=C(Cc1ccccc1)c1ncccc1C (single isomer, unassigned) [compound 109]
logP [2]: 6.00^[a] (isomer B)

SMILES: CC(=NOCC(C)(C)CON=C(C)c1ccccc1Cl)c1cccc(C)n1 [compound 413]
logP (value marked [b]): 5.59^[b]

SMILES: C=C(CO/N=C(\N)c1ncc(F)cc1F)CO/N=C(\N)c1ncc(F)cc1F [compound 45]
logP [1]: 2.42^[b]

SMILES: C=C(CON=C(N)c1cc(C)cc(C)c1)CON=C(C)c1cccc(C)n1 [compound 185]
logP [1]: 3.17^[b]

SMILES: C=C(CON=C(C)c1cccc(C)n1)CON=C(C#N)c1ccc(C)c(C)n1 [Compound 821]
logP (value marked [a]): 3.74^[a]

SMILES: CC(=NOCCCCCCON=C(C)c1cccc(C)n1)c1ccc(C)nc1 [compound 394]
logP (value marked [b]): 2.62^[b]

SMILES: C/C(=N\OCC(C)CON)c1cccc(C)n1 (racemic) [XII-11]
logP [3]: 0.7^[a]
logP [4]: 0.7^[b]
logP [5]: 2.15^[c]

SMILES: C=C(CON=C(CC)c1cccc(CC)n1)CON=C(CC)c1cccc(CC)n1 [Compound 265]
logP (value marked [b]): 7.08^[b]

SMILES: COc1ccc(C(C)=NOCC(C)CON=C(C)c2ccc(OC)c(C)n2)nc1C (centres unmarked) [Compound 825]
logP (value marked [b]): 5.21^[b]
logP (value marked [c]): 5.58^[c]

SMILES: CCC(=NOCC1(CON=C(CC)c2cc(C)cc(C)n2)CC1)c1cc(C)cc(C)n1 (mixture of isomers) [Compound 570]
logP (method marked [a] in Table 1): 3.22^[a]

SMILES: CC(=NOCCCCON=C(C)c1ccc(Cl)s1)c1cccc(C)n1 [compound 446]
logP (value marked [b]): 4.97^[b]

SMILES: CC(=NOCC(C)(C)CON=C(c1ccccc1)c1cccc(C)n1)c1cccc(C)n1 (mixture of isomers) [Compound 880]
logP (value marked [b]): 4.72^[b]
logP (value marked [c]): 5.37^[c]

SMILES: CC(=NOCCCCON=C(C)c1cccc(CC(C)C)n1)c1cccc(C)n1 [compound 326]
logP (value marked [b]): 6.16^[b]

SMILES: CC(=NOCC(=O)ON=C(C)c1cccc(C)n1)c1cccc(C)n1 [compound 158]
logP [2]: 2.50^[a]
logP [1]: 2.57^b]

SMILES: CC(=NOCCCON=C(C)c1ccc2c(n1)CCC2)c1ccc2c(n1)CCC2 [Compound 302]
logP (value marked [a]): 3.28^[a]

SMILES: COCc1nc(/C(N)=N/OCO/N=C(\N)c2nc(COC)c(C)c(COC)n2)nc(COC)c1C [compound 40]
logP [1]: 1.35^[b]

SMILES: CC1=NOC(CO/N=C(\C)c2cc(C)cc(C)n2)(CO/N=C(\C)c2cc(C)cc(C)n2)C1 [Compound 637]
logP (method marked [b] in Table 1): 1.60^[b]

SMILES: CC(=NOC(=O)N(C)C(=O)ON=C(C)c1cc(C)cc(C)n1)c1cc(C)cc(C)n1 [compound 676]
logP (method marked [b] in Table 1): 2.21^[b]

SMILES: CC(=NOCCCCCCON=C(C)c1cccc2ccccc12)c1cccc(C)n1 [compound 395]
logP (value marked [b]): 6.16^[b]

SMILES: CC(=NOCC1(CON=C(C)c2ccc(C)c(C)n2)CC1)c1ccc(C)c(C)n1 [Compound 315]
logP (value marked [b]): 2.84^[b]
logP (value marked [c]): 6.08^[c]
